Assay: Stability study according to ICH guidelines
Assay type: physicochemical
Procedure: The total impurity content is measured after synthesis of the compound and compared with the measured total impurity content after storage for a designated period of time. […] Stability studies were conducted, according to the ICH guidelines, for 6 months at accelerated condition (40° C./75% RH) and at room temperature.

Cc1nc(Nc2ncc(C(=O)Nc3c(C)cccc3Cl)s2)cc(N2CCN(CCO)CC2)n1 [N-(2-chloro-6-methylphenyl)-2-[[6-[4-(2-hydroxyethyl)-1-piperazinyl]-2-methyl-4-pyrimidinyl]amino]-5-thiazolecarboxamide]
total impurity content after storage (about 6 months at about 40° c. and about 75% RH): less than 4% | total impurity content (at 0 days): less than 3%
